Here are results for 2 compounds from US4563306A, “Peptides and process for preparing the same” (Tanabe Seiyaku Co., Ltd., priority 1983, dated 1986).

What all share (format): in vivo
Assay [1] deals with male STD/ddy mice. Description: Increasing effect on spontaneous locomotor activity (Ambulometer). To be noted: intraperitoneal, activity measured for 60 minutes, parallel line assay, TRH = 1. How it is done: (3) Increasing effect on spontaneous locomotor activity:
A group of five male STD/ddY mice were individually placed in Ambulometer (i.e., an apparatus for measuring spontaneous locomotor activity; manufactured by OHARA IKA Co.) for 30 minutes to acclimatize to the apparatus. Thereafter, a test compound dissolved in physiological saline was intraperitoneally administered to the mice and, immediately after administration of the test compound, the spontaneous locomotor activity was measured for 60 minutes. Physiological saline was used for control instead of the test compound solution.

The subject of assay [2] is male STD/ddy mice. Description: Antagonistic effect on pentobarbital anesthesia. To be noted: pentobarbital sodium 55 mg/kg i.p., test compound intravenous 10 minutes later, duration of anesthesia, parallel line assay, TRH = 1. How it is done: (2) Antagonistic effect on pentobarbital anesthesia:
Pentobarbital sodium was intraperitoneally administered to a group of ten male STD/ddy mice at a dose of 55 mg/kg. Ten minutes after the administration of pentobarbital sodium, a test compound dissolved in physiological saline was intravenously administered to the mice which had lost the righting reflex. The duration of anesthesia was measured as the time from the end of administration of the test compound until the righting reflex regained. Physiological saline was used for control instead of the test compound solution (Prange et al., Life Science, 14, 447-455, (1974)).

The test system of another assay is Serum TSH levels. Description: TSH-releasing activity (serum TSH by double-antibody radioimmunoassay after i.v. administration). To be noted: male JCL: SD rats, intravenous, serum TSH 15 minutes after administration; parallel line assay, TRH = 1. How it is done:
(1) TSH-releasing activity:
A test compound dissolved in a 0.1% BSA (bovine serum albumin)-containing physiological saline was intravenously administered to a group of five male JCL: SD rats. Fifteen minutes after the administration, blood was taken from the abdominal aorta under anesthesia. Serum TSH levels were determined by the double-antibody radioimmunoassay method (Midgley et al., Endocrinology., 79, 10 (1966)). The BSA-containing physiological saline was used for control instead of the test compound solution.

In assay [3] the test system is male STD/ddy mice. Description: Antagonistic effect on reserpine-induced hypothermia. The following applies: intraperitoneal, rectal temperature 30, 60, 120 and 180 minutes after administration, parallel line assay, TRH = 1. How it is done: (4) Antagonistic effect on reserpine-induced hypothermia:
A test compound dissolved in physiological saline was intraperitoneally administered to a group of five male STD/ddy mice, and the rectal temperature was measured 30, 60, 120 and 180 minutes after the administration of the test compound. The increase in temperature in the treated group was compared to that in the control group which received physiological saline instead of the test compound solution.

The test system of assay [4] is male STD/ddy mice. As to the kind of experiment: Potentiating effect on methamphetamine-induced hyperlocomotion. To be noted: methamphetamine 0.2 mg/kg and test compound intraperitoneally at the same time, locomotor activity for 60 minutes, parallel line assay, TRH = 1. How it is done: (5) Potentiating effect on methamphetamine-induced hyperlocomotion:
A group of ten male STD/ddY mice were individually placed in Ambulometer for 30 minutes to acclimatize to the apparatus.

`NC(=O)[C@@H]1CCCN1C(=O)[C@H](Cc1c[nH]cn1)NC(=O)[C@@H]1Cc2ccccc2C(=O)N1` [N^α -[(3 S)-1-oxo-1,2,3,4-tetrahydroisoquinoline-3-carbonyl]-L-histidyl-L-prolinamide]: the “Increasing effect on spontaneous locomotor activity, potency ratio relative to TRH” value in the assay on male STD/ddy mice [1] worked out at 10. Further, in the assay on male STD/ddy mice [2], the “Antagonistic effect on pentobarbital anesthesia, potency ratio relative to TRH” value turned out to be 10. In addition, in the assay on Serum TSH levels, the “TSH-releasing activity, potency ratio relative to TRH” value is listed as 1. The “Antagonistic effect on reserpine-induced hypothermia, potency ratio relative to TRH” value in the assay on male STD/ddy mice [3] worked out at 10. Besides, in the assay with male STD/ddy mice [4], the “Potentiating effect on action of methamphetamine, potency ratio relative to TRH” value was 10.

With `NC(=O)[C@@H]1CCCN1C(=O)[C@H](Cc1c[nH]cn1)NC(=O)[C@@H]1CCC(=O)N1` [TRH, L-pyroglutamyl-L-histidyl-L-prolinamide], the “Increasing effect on spontaneous locomotor activity, potency ratio relative to TRH” value in the assay with male STD/ddy mice [1] came out at 1. Also, the “Antagonistic effect on pentobarbital anesthesia, potency ratio relative to TRH” value in the assay on male STD/ddy mice [2] was found to be 1. The “TSH-releasing activity, potency ratio relative to TRH” value in the assay on Serum TSH levels turned out to be 1. Also, in the assay on male STD/ddy mice [3], the “Antagonistic effect on reserpine-induced hypothermia, potency ratio relative to TRH” value is 1. Also, the “Potentiating effect on action of methamphetamine, potency ratio relative to TRH” value with male STD/ddy mice [4] turned out to be 1.
